Assay results as given in article PMC3155411 (2011).

Legend:
[1] = target: carbonic anhydrase (Zn-CA) (Bos taurus, UniProt P00921); assay: fluorescence titration; format: binding
[2] = target: T1, yeast alcohol dehydrogenase (Saccharomyces cerevisiae, UniProt P00330); assay: fluorescence titration; format: binding
T1 sequence (P00330 2-348): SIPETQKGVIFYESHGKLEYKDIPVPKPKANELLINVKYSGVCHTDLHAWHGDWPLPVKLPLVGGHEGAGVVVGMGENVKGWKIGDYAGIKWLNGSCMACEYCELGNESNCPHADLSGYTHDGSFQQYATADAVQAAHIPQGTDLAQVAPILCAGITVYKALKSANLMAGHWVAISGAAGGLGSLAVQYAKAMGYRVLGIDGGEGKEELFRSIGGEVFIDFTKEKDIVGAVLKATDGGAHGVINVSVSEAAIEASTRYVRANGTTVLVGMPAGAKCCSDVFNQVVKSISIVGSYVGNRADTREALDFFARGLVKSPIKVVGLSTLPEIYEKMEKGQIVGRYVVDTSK

Chain of carbonic anhydrase (Zn-CA) (P00921 2-260): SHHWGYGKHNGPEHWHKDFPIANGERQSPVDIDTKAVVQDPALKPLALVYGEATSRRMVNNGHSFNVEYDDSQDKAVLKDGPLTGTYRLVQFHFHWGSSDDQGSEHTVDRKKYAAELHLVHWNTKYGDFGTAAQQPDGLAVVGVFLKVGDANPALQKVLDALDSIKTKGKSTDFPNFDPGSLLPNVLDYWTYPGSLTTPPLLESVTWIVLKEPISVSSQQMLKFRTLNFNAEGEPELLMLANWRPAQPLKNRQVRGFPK

- Kd [1]: 0.155 µM
- Kd [2]: 48.6 µM
Structure (SMILES): COc1cc(NS(=O)(=O)c2ccc(C)cc2)c2ncccc2c1 [TSQ, 6-methoxy-8-p-toluenesulfonamido-quinoline]
